In patent US5441743A, “Marine compositions bearing preferentially concentrated domains of non-tin, organo anti-fouling agents” (priority 1993, dated 1995):
Values joined by “and” are separate entries in the source; they are usually repeats but may differ in a detail not shown here. Equal entries are not always repeated. Where two headings read alike, the source gives them in different places.

Legend:
rats or mice = conditions: cited from earlier work
fish = conditions: in words; cited from earlier work
rats = conditions: oral; cited from earlier work
fouling = assay: Anti-fouling panel exposure in the ocean at Daytona Beach, rating 0 to 10; conditions: for General Rating, 6 Mos. / General Rating, 1 Mo. / General Rating, 4 Mos.: Example 15, Table 7, agent as is
Excerpt: Test panels were 15.24 cm×30.48 cm (6 in×12 in) in dimension and were constructed of a white plastic top surface and a black plastic bottom surface. The test panels were coated on both sides with the two formulations above-tabulated at a film thickness of about 5 mils dry. The test panels then were exposed horizontally with the white surface upward and the black surface downward in the ocean at Daytona Beach, Fla., U.S.A. A control panel consisted of 12 wt-% triphenyl tin hydroxide dispersed in a resinous vinyl binder (80 wt-parts of a vinyl chloride polymer, VAGH brand, Union Carbide Corporation, New York, N.Y.) reduced in methyl ethyl ketone solvent to 50% solids content. After exposure, the control and test panels were inspected and assigned a numerical rating from 0 to 10 based on the amount of surface area of the panel that was free from fouling, a rating of "10" corresponding to perfect protection. The following results were recorded.

mammalian = conditions: in words; cited from earlier work
[1] = SEM / Energy Dispersion Spectroscopy analysis of cured epoxy resin; assay type: physicochemical; conditions: Example 16, Sample 2 (FIG. 2); EDS
Excerpt: An epoxy resin system was examined for its ability to be modified so as to preferentially influence the concentration or location of an anti-fouling agent (Nopocide N-96, see Example 1) within its structure. A direct comparison was made between an epoxy resin (EPON 828 epoxy resin, diglycidyl ether of bis-phenol A, Shell Chemical Company) and the same epoxy resin containing a domain structuring polymeric material, such as a polysulfide resin (LP-32 polysulfide resin, Thiokol Corporation). Both systems contained the same anti-fouling agent. The compositions formulated are set forth below: […]

[2] = Example 13, Table 5, additive at 20 wt-%
[3] = Example 12, Table 4, additive at 20 wt-%
[4] = Example 14, Table 6, additive at 20 wt-%
[5] = listed as 2,3-Dichloro-1,4-Naphthaquinone
[6] = Example 11, Table 3, additive at 20 wt-%, 10 is perfect protection
[7] = Example 10, 20 wt-% in Control Paint, 10 is perfect protection

Compound: O=C(O)Cc1c(Cl)ccc(Cl)c1Cl [trichlorophenyl acetic acid]
- LD50 value (rats or mice; species not given, in mg/kg): 1,780

Compound: C#CCOS(=O)OC1CCCCC1Oc1ccc(C(C)(C)C)cc1 (centres unmarked) [dimethylethylphenoxy-cyclohexyl-2-propynyl sulfite]
- LD50 value (rats or mice; species not given, in mg/kg): 2,200

Compound: O=C(O)CNCP(=O)(O)O [aminoacetic acid derivative of methylphosphonate]
- LD50 value (rats or mice; species not given, in mg/kg): 4,300

Compound: CC(C)C(C(=O)OC(C#N)c1cccc(Oc2ccccc2)c1)c1ccc(Cl)cc1 (centres unmarked) [diphenyl ether, chlorophenyl derivative of the isobutyric acid ester of hydroxyacetonitrile]
- LD50 value (rats or mice; in vivo, po): 451
- toxicity to fish (fish): toxic to fish

Compound: CCCCCCCCCCCCCCCC[N+](C)(C)C.[Br-] [cetyltrimethylammonium bromide]
- LD50 value (rats): 500 mg/kg

Compound: CCCCCCCCCCCCCCCC[n+]1ccccc1 [cetylpyridinium chloride]
- LD50 value (rats): 200 mg/kg

Compound: C=C(Cl)CSC(=S)N(CC)CC [2-chloro-2-propenyl diethylcarbamodithioate]
- LD50 value (rats or mice; in vivo, po): 850

Compound: C=CCC1=C(C)C(OC(=O)[C@@H]2[C@@H](C=C(C)C)C2(C)C)CC1=O (stereo partly drawn) [d-Trans-Allerthrin]
- Rating After Exposure, 1 Months (fouling; [2]): 0-1
- Rating After Exposure, 4 Months (fouling; [2]): 0

Compound: c1ccc2c(c1)Nc1ccccc1S2 [Phenothiazine]
- Rating After Exposure, 4 Months (fouling; [3]): 0

Compound: CCCCCCCCCCCCNC(=N)N [dodecylguanidine monoacetate]
- LD50 value (rats or mice; species not given, in mg/kg): 1,000

Compound: O=C(Nc1cccc2c(NC(=O)n3ccnc3)cccc12)n1ccnc1
- Rating After Exposure, 1 Months (fouling; [4]): 6-7
- Rating After Exposure, 4 Months (fouling; [4]): 0

Compound: CCN(CC)c1nc(C)cc(OP(=S)(OC)OC)n1 [methyl, diethylamino, dimethoxythiophosphate derivative of pyrimidine]
- LD50 value (rats): 2,000 mg/kg

Compound: CN(C)C(=O)Nc1ccc(Cl)c(Cl)c1 [3-(3,4-Dichlorophenyl)-1,1-dimethyl urea]
- Rating After Exposure, 1 Months (fouling; [4]): 9
- Rating After Exposure, 4 Months (fouling; [4]): 0

Compound: O=C1C(Cl)=C(Cl)C(=O)c2ccccc21 [2,3-dichloro-1,4-napthoquinone]
- General Rating, 6 Mos. (fouling): 0
- General Rating, 1 Mo. (fouling; [5]): 7 and 5
- General Rating, 4 Mos. (fouling; [5]): 6 and 3

Compound: C=CCc1ccc(O)c(OC)c1 [Eugenol, 4-allyl-2-methoxyphenol]
- General Rating, 1 Mo. (fouling): 9 and 7
- General Rating, 4 Mos. (fouling): 3
- General Rating, 6 Mos. (fouling): 0
- LD50 value (rats): 2,000 mg/kg

Compound: Nc1cnn(-c2ccccc2)c(=O)c1Cl [amino, chloro, phenyl derivative of azacyclohexamine]
- LD50 value (rats or mice; species not given, in mg/kg): 3,030

Compound: CCOC(=O)C(O)(c1ccc(Cl)cc1)c1ccc(Cl)cc1 [ethyl 4-chloro-alpha(4-chlorophenyl)alpha-hydroxy benzene acetate]
- LD50 value (rats): 5,000 mg/kg

Compound: Nc1cc(Cl)ccc1Cl [2,5-Dichloroaniline]
- Rating After Exposure, 4 Months (fouling; [6]): 0
- Rating After Exposure, 462 Days (fouling; [6]): 0

Compound: O=C1OC(=O)C2C1C1(Cl)C(Cl)=C(Cl)C2(Cl)C1(Cl)Cl (centres unmarked) [1,4,5,6,7,7-hexachloro-5-norborene-2,3-dicarboxylic anhydride]
- Rating After Exposure, 4 Months (fouling; [3]): 0

Compound: C=CCC1=C(C)C(OC(=O)C2C(C=C(C)C)C2(C)C)CC1=O (centres unmarked) [allyl, methylhydroxy substituted cyclopententone ester of dimethylpropenyl cyclopropane carboxylic acid]
- LD50 value (rats or mice; species not given, in mg/kg): 1,000

Compound: C=CCN(CC=C)C(=O)CCl [2-chloro-N,N-diallylacetamide]
- General Rating, 1 Mo. (fouling): 5
- General Rating, 4 Mos. (fouling): 4
- General Rating, 6 Mos. (fouling): 0
- LD50 value (rats or mice; species not given, in mg/kg): 750
- LD50 value (rats): 700 mg/kg

Compound: NC(=O)Cc1cccc2ccccc12 [napthalene acetamide]
- LD50 value (rats or mice; in vivo, po): 1,000

Compound: Nc1c(Cl)cc([N+](=O)[O-])cc1Cl [2,-6-dichloro, 4-nitroaniline]
- Rating After Exposure, 4 Months (fouling; [6]): 0
- Rating After Exposure, 462 Days (fouling; [6]): 0

Compound: Nc1ccc(Cl)c(Cl)c1 [3,4-Dichloroaniline]
- Rating After Exposure, 4 Months (fouling; [6]): 0
- Rating After Exposure, 462 Days (fouling; [6]): 0

Compound: Nc1cc(Cl)cc(C(=O)O)c1Cl [2,5-dichloro,3-amino benzoic acid]
- LD50 value (rats or mice; in vivo, po): 5,620

Compound: CCNc1nc(Cl)nc(NC(C)C)n1 [2-isopropylamino-4-chloro-6-ethylamino triazine]
- LD50 value (rats): 1869 mg/kg

Compound: Oc1ccccc1-c1ccccc1 [o-phenylphenol]
- LD50 value (rats or mice; species not given, in mg/kg): 2,700

Compound: c1ccc(Nc2ccccc2)cc1 [diphenylamine]
- General Rating, 1 Mo. (fouling): 5
- General Rating, 6 Mos. (fouling): 0
- General Rating, 4 Mos. (fouling; listed as Diphenylanaline): 4 and 3
- mammalian toxicity (mammalian): Low mammalian toxicity

Compound: OB(O)O [boric acid]
- anti-fouling activity (fouling; in words): quite active as an anti-fouling agent
- LD50 value (rats): 3,000 mg/kg

Compound: COP(=S)(OC)Oc1ccc(Sc2ccc(OP(=S)(OC)OC)cc2)cc1 [dimethoxythiophosphate derivative of diphenyl sulfide]
- LD50 value (rats): 2030 mg/kg

Compound: N#Cc1c(Cl)c(Cl)c(Cl)c(Cl)c1C#N [Nopocide, 1,2-dicyano, tetrachlorobenzene]
- Rating After Exposure, 4 Months (fouling; [7]): 0
- Rating After Exposure, 462 Days (fouling; [7]): 0

Compound: C#CC(C)(C)NC(=O)c1cc(Cl)cc(Cl)c1 [Pronamide, 3,5-dichloro-N-(3,3-dimethylpropyne)benzamide]
- Rating After Exposure, 1 Months (fouling; [2]): 0
- Rating After Exposure, 4 Months (fouling; [2]): 0

Compound: Oc1c(Cl)cc(Cl)c(Cl)c1Cc1c(O)c(Cl)cc(Cl)c1Cl [hexachlorophene]
- chlorine concentration in round island domains [1]: 48%
- chlorine concentration in sea-like domains [1]: 36%
